According to ChEMBL document CHEMBL3244194, “beta-Adrenoceptor blocking activity of halogenated thienylethanolamine derivatives” (J Med Chem, 1977):
The source made the active and inactive calls. The rule behind the calls is not given here.

Assays:
Rattus norvegicus [1] = assay: In vivo inhibition of beta-adrenoceptor in Wistar rat assessed as inhibition of isoproterenol-induced tachycardia at 4 mg/kg, iv relative to control; format: functional
Rattus norvegicus [2] = assay: In vivo inhibition of beta-adrenoceptor in Wistar rat assessed as decrease in heart rate at 4 mg/kg, iv relative to control; format: functional
[3] = Acute toxicity in iv dosed mouse; conditions: in vivo
Felis catus [4] = assay: In vivo inhibition of beta-adrenoceptor in cat assessed as inhibition of isoproterenol-induced tachycardia at 1 mg/kg, iv relative to control; format: functional
Felis catus [5] = assay: In vivo inhibition of beta-adrenoceptor in cat assessed as inhibition of isoproterenol-induced hypotension at 0.1 mg/kg, iv relative to control; format: functional
Felis catus [6] = assay: In vivo inhibition of beta-adrenoceptor in cat assessed as inhibition of isoproterenol-induced tachycardia at 0.1 mg/kg, iv relative to control; format: functional
Felis catus [7] = assay: In vivo inhibition of beta-adrenoceptor in cat assessed as inhibition of isoproterenol-induced hypotension at 1 mg/kg, iv relative to control; format: functional
Cavia porcellus [8] = assay: In vivo inhibition of beta-adrenoceptor in histamine-treated guinea pig assessed as inhibition of isoproterenol-induced bronchodilator effect at 0.1 mg/kg, iv administered 3 mins prior to histamine/isoproterenol challenge relative to control; format: functional
Mus musculus [9] = assay: Local anesthetic activity in ICR Swiss mouse assessed as inhibition of pain reflex response at 1%, id relative to control; format: functional, organism-based
Mus musculus [10] = assay: Local anesthetic activity in ICR Swiss mouse assessed as inhibition of pain reflex response at 0.5%, id relative to control; format: functional
Cavia porcellus [11] = assay: In vivo inhibition of beta-adrenoceptor in histamine-treated guinea pig assessed as inhibition of isoproterenol-induced bronchodilator effect at 0.01 mg/kg, iv administered 3 mins prior to histamine/isoproterenol challenge relative to control; format: functional, organism-based; set-up: dose 0.01 mg/kg
Felis catus [12] = assay: In vivo inhibition of beta-adrenoceptor in cat assessed as inhibition of isoproterenol-induced tachycardia at 0.05 mg/kg, iv relative to control; format: functional

CC(C)NCC(O)c1sccc1Cl (racemic)
inhibition in vivo at 4 mg/kg (Rattus norvegicus [1]): 0% | inhibition in vivo at 4 mg/kg (Rattus norvegicus [2]): 0% | LD50 [3]: 38 mg/kg

CC(C)(C)NCC(O)c1sccc1Cl (racemic)
inhibition in vivo at 4 mg/kg (Rattus norvegicus [1]): 0% | inhibition in vivo at 4 mg/kg (Rattus norvegicus [2]): 0% | LD50 [3]: 25 mg/kg

CC(C)NCC(O)c1cc(Cl)cs1 (racemic)
inhibition in vivo at 1 mg/kg (Felis catus [4]): 90% | inhibition in vivo at 4 mg/kg (Rattus norvegicus [1]): 86% | inhibition in vivo at 0.1 mg/kg (Felis catus [5]): 57% | inhibition in vivo at 4 mg/kg (Rattus norvegicus [2]): 8% | inhibition in vivo at 0.1 mg/kg (Felis catus [6]): 62% | inhibition in vivo at 1 mg/kg (Felis catus [7]): 75% | LD50 [3]: 35 mg/kg

CC(C)(C)NCC(O)c1cc(Cl)cs1 (racemic)
inhibition in vivo at 4 mg/kg (Rattus norvegicus [1]): 53% | inhibition in vivo at 4 mg/kg (Rattus norvegicus [2]): 6% | LD50 [3]: 38 mg/kg

CC(C)NCC(O)c1sc(Cl)cc1Cl (racemic)
inhibition in vivo at 4 mg/kg (Rattus norvegicus [1]): 70% | inhibition in vivo at 4 mg/kg (Rattus norvegicus [2]): 28% | LD50 [3]: 35 mg/kg

CC(C)(C)NCC(O)c1sc(Cl)cc1Cl (racemic)
inhibition in vivo at 1 mg/kg (Felis catus [4]): 74% | inhibition in vivo at 4 mg/kg (Rattus norvegicus [1]): 75% | inhibition in vivo at 0.1 mg/kg (Felis catus [5]): 55% | inhibition in vivo at 4 mg/kg (Rattus norvegicus [2]): 32% | inhibition in vivo at 0.1 mg/kg (Felis catus [6]): 65% | inhibition in vivo at 1 mg/kg (Felis catus [7]): 65% | LD50 [3]: 30 mg/kg

CC(C)NCC(O)c1sc(Cl)c(Cl)c1Cl (racemic)
inhibition in vivo at 1 mg/kg (Felis catus [4]): 100% | inhibition in vivo at 4 mg/kg (Rattus norvegicus [1]): 90% | inhibition in vivo at 0.1 mg/kg (Felis catus [5]): 52% | inhibition in vivo at 4 mg/kg (Rattus norvegicus [2]): 20% | inhibition in vivo at 0.1 mg/kg (Felis catus [6]): 58% | inhibition in vivo at 1 mg/kg (Felis catus [7]): 85% | LD50 [3]: 35 mg/kg

CC(C)(C)NCC(O)c1sc(Cl)c(Cl)c1Cl (racemic)
inhibition in vivo at 0.1 mg/kg (Cavia porcellus [8]): 100% | inhibition in vivo at 1 mg/kg (Felis catus [4]): 98% | local anesthetic activity (active/inactive) (Mus musculus [9]): Active | inhibition in vivo at 4 mg/kg (Rattus norvegicus [1]): 89% | inhibition in vivo at 0.1 mg/kg (Felis catus [5]): 87% | inhibition (INH) (Mus musculus [10]): 52% | inhibition in vivo at 4 mg/kg (Rattus norvegicus [2]): 26% | inhibition in vivo at 0.1 mg/kg (Felis catus [6]): 69% | inhibition in vivo at 1 mg/kg (Felis catus [7]): 100% | LD50 [3]: 40 mg/kg

CC(C)NCC(O)c1ccc(Br)s1.Cl (racemic)
inhibition in vivo at 1 mg/kg (Felis catus [4]): 82% | local anesthetic activity (active/inactive) (Mus musculus [9]): Active | inhibition in vivo at 4 mg/kg (Rattus norvegicus [1]): 87% | inhibition in vivo at 0.1 mg/kg (Felis catus [5]): 50% | inhibition (INH) (Mus musculus [10]): 52% | inhibition in vivo at 4 mg/kg (Rattus norvegicus [2]): 11% | inhibition in vivo at 0.1 mg/kg (Felis catus [6]): 67.5% | inhibition in vivo at 1 mg/kg (Felis catus [7]): 72% | LD50 [3]: 45 mg/kg

CC(C)(C)NCC(O)c1ccc(Br)s1 (racemic)
inhibition in vivo at 4 mg/kg (Rattus norvegicus [1]): 55.5% | inhibition in vivo at 4 mg/kg (Rattus norvegicus [2]): 8% | LD50 [3]: 27 mg/kg

CC(C)NCC(O)c1sccc1Br (racemic)
inhibition in vivo at 4 mg/kg (Rattus norvegicus [1]): 0% | inhibition in vivo at 4 mg/kg (Rattus norvegicus [2]): 0% | LD50 [3]: 35 mg/kg

CC(C)(C)NCC(O)c1sccc1Br (racemic)
inhibition in vivo at 4 mg/kg (Rattus norvegicus [1]): 12.5% | inhibition in vivo at 4 mg/kg (Rattus norvegicus [2]): 10% | LD50 [3]: 25 mg/kg

CC(C)NCC(O)c1cc(Br)cs1 (racemic)
inhibition in vivo at 1 mg/kg (Felis catus [4]): 90% | inhibition in vivo at 4 mg/kg (Rattus norvegicus [1]): 89.5% | inhibition in vivo at 0.1 mg/kg (Felis catus [5]): 53% | inhibition in vivo at 4 mg/kg (Rattus norvegicus [2]): 11% | inhibition in vivo at 0.1 mg/kg (Felis catus [6]): 70% | inhibition in vivo at 1 mg/kg (Felis catus [7]): 82% | LD50 [3]: 42 mg/kg

CC(C)(C)NCC(O)c1cc(Br)cs1 (racemic)
inhibition in vivo at 0.1 mg/kg (Cavia porcellus [8]): 25% | inhibition in vivo at 1 mg/kg (Felis catus [4]): 67% | inhibition in vivo at 4 mg/kg (Rattus norvegicus [1]): 50% | inhibition in vivo at 0.1 mg/kg (Felis catus [5]): 0% | inhibition in vivo at 4 mg/kg (Rattus norvegicus [2]): 17% | inhibition in vivo at 0.1 mg/kg (Felis catus [6]): 33% | inhibition in vivo at 1 mg/kg (Felis catus [7]): 50% | LD50 [3]: 35 mg/kg

CC(C)NCC(O)c1cc(Br)c(Br)s1.Cl (racemic)
inhibition in vivo at 0.1 mg/kg (Cavia porcellus [8]): 40% | inhibition in vivo at 1 mg/kg (Felis catus [4]): 100% | local anesthetic activity (active/inactive) (Mus musculus [9]): Active | inhibition (Cavia porcellus [11]): inactive | inhibition in vivo at 4 mg/kg (Rattus norvegicus [1]): 100% | inhibition in vivo at 0.1 mg/kg (Felis catus [5]): 75% | inhibition (INH) (Mus musculus [10]): 72.5% | inhibition in vivo at 4 mg/kg (Rattus norvegicus [2]): 25% | inhibition in vivo at 0.1 mg/kg (Felis catus [6]): 92.5% | inhibition in vivo at 1 mg/kg (Felis catus [7]): 100% | inhibition in vivo at 0.05 mg/kg (Felis catus [12]): 78% | LD50 [3]: 45 mg/kg

CC(C)(C)NCC(O)c1cc(Br)c(Br)s1 (racemic)
inhibition in vivo at 0.1 mg/kg (Cavia porcellus [8]): 100% | inhibition in vivo at 1 mg/kg (Felis catus [4]): 100% | local anesthetic activity (active/inactive) (Mus musculus [9]): Active | inhibition in vivo at 4 mg/kg (Rattus norvegicus [1]): 92% | inhibition in vivo at 0.1 mg/kg (Felis catus [5]): 58% | inhibition (INH) (Mus musculus [10]): 100% | inhibition in vivo at 4 mg/kg (Rattus norvegicus [2]): 18% | inhibition in vivo at 0.1 mg/kg (Felis catus [6]): 87.5% | inhibition in vivo at 1 mg/kg (Felis catus [7]): 95% | inhibition in vivo at 0.05 mg/kg (Felis catus [12]): 61% | LD50 [3]: 38 mg/kg

CC(C)NCC(O)c1sc(Br)cc1Br (racemic)
inhibition in vivo at 4 mg/kg (Rattus norvegicus [1]): 77.5% | inhibition in vivo at 4 mg/kg (Rattus norvegicus [2]): 14% | LD50 [3]: 35 mg/kg

CC(C)(C)NCC(O)c1sc(Br)cc1Br (racemic)
inhibition in vivo at 1 mg/kg (Felis catus [4]): 88% | local anesthetic activity (active/inactive) (Mus musculus [9]): Active | inhibition in vivo at 4 mg/kg (Rattus norvegicus [1]): 78% | inhibition in vivo at 0.1 mg/kg (Felis catus [5]): 45% | inhibition (INH) (Mus musculus [10]): 82% | inhibition in vivo at 4 mg/kg (Rattus norvegicus [2]): 17% | inhibition in vivo at 0.1 mg/kg (Felis catus [6]): 50% | inhibition in vivo at 1 mg/kg (Felis catus [7]): 89% | LD50 [3]: 42 mg/kg

CC(C)NCC(O)c1scc(Br)c1Br.Cl (racemic)
inhibition in vivo at 4 mg/kg (Rattus norvegicus [1]): 92% | inhibition in vivo at 4 mg/kg (Rattus norvegicus [2]): 10% | LD50 [3]: 27 mg/kg

CC(C)(C)NCC(O)c1scc(Br)c1Br (racemic)
inhibition in vivo at 0.1 mg/kg (Cavia porcellus [8]): 100% | inhibition in vivo at 1 mg/kg (Felis catus [4]): 92% | local anesthetic activity (active/inactive) (Mus musculus [9]): Active | inhibition in vivo at 4 mg/kg (Rattus norvegicus [1]): 95% | inhibition in vivo at 0.1 mg/kg (Felis catus [5]): 64% | inhibition (INH) (Mus musculus [10]): 75% | inhibition in vivo at 4 mg/kg (Rattus norvegicus [2]): 36% | inhibition in vivo at 0.1 mg/kg (Felis catus [6]): 53% | inhibition in vivo at 1 mg/kg (Felis catus [7]): 97% | LD50 [3]: 28 mg/kg

CC(C)NCC(O)c1sc(Br)c(Br)c1Br (racemic)
inhibition in vivo at 1 mg/kg (Felis catus [4]): 95% | local anesthetic activity (active/inactive) (Mus musculus [9]): Active | inhibition in vivo at 4 mg/kg (Rattus norvegicus [1]): 75% | inhibition in vivo at 0.1 mg/kg (Felis catus [5]): 65% | inhibition (INH) (Mus musculus [10]): 40% | inhibition in vivo at 4 mg/kg (Rattus norvegicus [2]): 10% | inhibition in vivo at 0.1 mg/kg (Felis catus [6]): 50% | inhibition in vivo at 1 mg/kg (Felis catus [7]): 88% | LD50 [3]: 35 mg/kg

CC(C)(C)NCC(O)c1sc(Br)c(Br)c1Br (racemic)
inhibition in vivo at 1 mg/kg (Felis catus [4]): 100% | inhibition in vivo at 4 mg/kg (Rattus norvegicus [1]): 90% | inhibition in vivo at 0.1 mg/kg (Felis catus [5]): 77.5% | inhibition in vivo at 4 mg/kg (Rattus norvegicus [2]): 12% | inhibition in vivo at 0.1 mg/kg (Felis catus [6]): 72.5% | inhibition in vivo at 1 mg/kg (Felis catus [7]): 100% | LD50 [3]: 32 mg/kg

CC(C)NCC(O)COc1cccc2ccccc12 (stereo not given) [PROPRANOLOL]
inhibition in vivo at 0.1 mg/kg (Cavia porcellus [8]): 100% | inhibition in vivo at 1 mg/kg (Felis catus [4]): 100% | local anesthetic activity (active/inactive) (Mus musculus [9]): Active | inhibition (Cavia porcellus [11]): Active | inhibition in vivo at 4 mg/kg (Rattus norvegicus [1]): 95% | inhibition in vivo at 0.1 mg/kg (Felis catus [5]): 85% | inhibition (INH) (Mus musculus [10]): 93% | inhibition in vivo at 4 mg/kg (Rattus norvegicus [2]): 32% | inhibition in vivo at 0.1 mg/kg (Felis catus [6]): 87% | inhibition in vivo at 1 mg/kg (Felis catus [7]): 100%
